Values joined by “and” are separate entries in the source; they are usually repeats but may differ in a detail not shown here. Equal values may be shown once. Read-outs that look alike come from different tables or passages of the source.
Key:
[1] = Pharmacokinetic experiment in rats; format: in vivo, Sprague-Dawley rats; design: Cl—pred: unit not given here; conditions: for AUC(0-t) / Vd / Cmax / MRT inf: male, Sprague-Dawley, rat, plasma; for Vd: read-out: Vz—pred; for F: oral 20 mg/kg vs IV 2 mg/kg; for MRT inf: read-out: MRTINF—pred
Protocol: 9 Male Sprague-Dawley rats, 7-8 weeks old, weighted 210 g, divided into 3 groups with 3 rats in each group, were intravenously (2 mg/kg) or orally (20 mg/kg) given a single dose of compound, and differences in pharmacokinetics of the rats were compared.
Rats were fed with a standard diet and water. Fasting began 16 hours before the test. The drugs were dissolved in PEG400 and dimethyl sulfoxide. Blood was collected from the eyelids at a time point of 0.083 hour, 0.25 hour, 0.5 hour, 1 hour, 2 hours, 4 hours, 6 hours, 8 hours, 12 hours, and 24 hours after administration.
Rats were briefly anesthetized after inhalation of ether, and 300 μL of blood samples were collected from the eyelids to test tubes. There was 30 μL of 1% heparin salt solution in the test tube. The tubes were dried overnight at 60° C. before use. After the blood sample was collected at the last time point, rats were anesthetized with ether and sacrificed.
Immediately after the collection, blood samples were sufficiently mixed by gently inverting the tube at least 5 times, and were placed on ice. Blood samples were centrifuged at 5000 rpm for 5 minutes at 4° C. to separate plasma from red blood cells. 100 μL of the plasma was pipetted into a clean plastic centrifuge tube, marking the name of the compound and collecting time. Plasma was stored at −80° C. prior to analysis. The concentration of the compounds disclosed herein in plasma was determined by LC-MS/MS. Pharmacokinetic parameters were calculated based on drug concentrations in plasma of each animal at different time points.

Ba/F3 parent cells = test: Cytotoxicity experiment, Ba/F3 parent cells (CellTiter-Glo); format: cell-based; conditions: Mus musculus, BaF3, 72 h; Ba/F3 parent cells with 8 ng/ml IL-3, 3 days
Protocol: (§1) Example 13: Cytotoxicity Experiment
(§2) The inhibitory effect of the Example compounds on the activity of Ba/F3 parent cell, Ba/F3 Bcr-Abl^T315I cell was examined.
(§3) 1. Preparation of cell plate: Ba/F3 parental cells, Ba/F3 Bcr-Abl^T315I cells were seeded in 96-well plates, and 8 ng/ml IL-3 was added to Ba/F3 parental cells. The cell plates were placed in carbon dioxide culture and incubated overnight.
(§4) 2. Preparation of test compounds: The test compounds were dissolved in DMSO and subjected to a 3.16-fold gradient dilution in triplicate, 9 concentrations were obtained, starting from the concentration of 10 μM.
(§5) 3. Treatment of Cells with compounds: Compounds at various concentrations were transferred to cell plates. The cell plates were incubated in a carbon dioxide incubator for 3 days.
(§6) 4. Detection: CellTiter-Glo4 reagent was added to the cell plates, which were incubated for 30 minutes at room temperature to stabilize the luminescence signal. Readings were performed using a PerkinElmer Envision multi-label analyzer.

[2] = biological target: T1, Ba/F3 Bcr-Abl^T315I cells (Homo sapiens, UniProt P00519, T315I, cells depend on it); test: Cytotoxicity experiment, Ba/F3 Bcr-Abl T315I cells (CellTiter-Glo); format: cell-based; conditions: 3 days, read-out: Ba/F3 Bcr-Abl1^T315I IC50
T1 construct: Ba/F3 Bcr-Abl1^T315I IC50; other: Ba/F3 Bcr-Abl T315I cells, 3 days; fused on or other part: P11274 (Breakpoint cluster region protein)
Protocol: as §1, §2, §3, §4, §5, §6

[3] = system: BA/F3 (BCR-ABL^T315I) cells; test: Pharmacodynamic evaluation in BA/F3 (BCR-ABL T315I) subcutaneous tumor model; format: in vivo, NOD/SCID mice; conditions: 15 mg/kg twice a day
Protocol: Feeding environment: SPF level.
Each NOD/SCID mouse was subcutaneously inoculated with 5×10^6 BA/F3 (BCR-ABL^T315I) cells in the right dorsal area, wherein the cells were resuspended in PBS (0.1 ml/mouse), to establish a subcutaneous tumor model. […] The efficacy was evaluated according to the relative tumor growth inhibition rate (TGI), and the safety evaluation was performed according to the body weight changes and deaths of the animals.
The experimental protocols for animal experiment disclosed herein were reviewed and approved by the CrownBio IACUC committee. During the experiment, the procedures of the animal experiment were carried out according to the requirements of AAALAC. After tumor inoculation, the effects of tumor growth and treatment on normal animal behavior were routinely monitored, including experimental animal activity, feeding and drinking, weight gain or loss, eye, hair and other abnormalities. Abnormal clinical symptoms observed during the experiment were recorded in the raw data. Mice body weight and tumor size were measured and recorded three times per week during the experiment. The mice were weighed before each administration and administered according to the weight thereof.
Relative tumor growth inhibition rate TGI (%):
T/C % is the relative tumor proliferation rate, that is, the percentage of tumor volume or tumor weight of the treatment group and the control group at a certain time point. T and C are the relative tumor volume (RTV) or tumor weight (TW) of the treatment group and the control group at a specific time point, respectively.
All experimental results were expressed as mean±standard error (x±s), and the significant difference of the tumor volume at 12 days after grouping between the control group and each treatment group was evaluated with one-way ANOVA, and significant difference of the tumor volume between the control group and each treatment group or between each treatment group was evaluated using Games-Howell (heterogeneity of variance), p<0.05 was considered to be significant.

[4] = format: in vivo; conditions: 15 mg/kg twice a day

Row | SMILES | Vz—pred ([1]; PO 20 mg/kg single dose) [L/kg] | AUC(0-t) ([1]; IV 2 mg/kg single dose) [ng·h/mL] | Vd ([1]; IV 2 mg/kg single dose) [L/kg] | AUC(0-t) ([1]; PO 20 mg/kg single dose) [ng·h/mL] | Cmax ([1]; PO 20 mg/kg single dose) [ng/mL] | F [1] [%] | IC50 (Ba/F3 parent cells) [nM] | GI50 [2] [nM] | further results
1 | O=C(Nc1ccc(OC(F)(F)Cl)cc1)c1cnc(N2CC[C@@H](O)C2)c(-c2ccn[nH]2)c1 [ABL-001, (R)—N-(4-(chlorodifluoromethoxy)phenyl)-6-(3-hydroxypyrrolidin-1-yl)-5-(1H-pyrazol-5-yl)nicotinamide, reference compound] | 5.14 | 6900 | 0.54 | 13700 | 1770 | 19.86 | – | – | –
2 | O=C(Nc1ccc(OC(F)(F)Cl)cc1)c1cnc(N2CC[C@@H](O)C2)c(-c2cnccn2)c1 [Example 1, (R)-6-(3-hydroxypyrrolidin-1-yl)-5-(pyrazin-2-yl)-N-(4-(chlorodifluoromethoxy)phenyl)nicotinamide] | 1.68 | 5700 | 0.7 | 38000 | 4330 | 66.68 | > 1000 | ≤ 100 | Cl—pred ([1]; IV 2 mg/kg single dose): 0.35; Cl—pred ([1]; PO 20 mg/kg single dose): 0.54; Cmax ([1]; IV 2 mg/kg single dose): 4820 ng/mL; MRT inf ([1]; IV 2 mg/kg single dose): 1.37 h; MRT inf ([1]; PO 20 mg/kg single dose): 5.43 h
3 | O=C(Nc1ccc(OC(F)(F)Cl)cc1)c1cnc(N2CC[C@@H](O)C2)c(-c2cccnn2)c1 [Example 2, (R)-6-(3-hydroxypyrrolidin-1-yl)-5-(pyridazine-3-yl)-N-(4-(chlorodifluoromethoxy)phenyl)nicotinamide] | – | – | – | – | – | – | > 1000 | 100 to 500 | –
4 | O=C(Nc1ccc(OC(F)(F)Cl)cc1)c1cnc(N2CC[C@@H](O)C2)c(-c2ccnnc2)c1 [Example 3, (R)-6-(3-hydroxypyrrolidin-1-yl)-5-(pyridazine-4-yl)-N-(4-(chlorodifluoromethoxy)phenyl)nicotinamide] | – | – | – | – | – | – | > 1000 | 500 to 1000 | –
5 | Nc1ncc(-c2cc(C(=O)Nc3ccc(OC(F)(F)Cl)cc3)cnc2N2CC[C@@H](O)C2)nn1 [Example 4, (R)-6-(3-hydroxypyrrolidin-1-yl)-5-(3-amino-1,2,4-triazin-6-yl)-N-(4-(chlorodifluoromethoxy)phenyl)nicotinamide] | – | – | – | – | – | – | > 1000 | 100 to 500 | –
6 | O=C(Nc1ccc(OC(F)(F)Cl)cc1)c1cnc(N2CC[C@@H](O)C2)c(-c2cncnn2)c1 [Example 5, (R)-6-(3-hydroxypyrrolidin-1-yl)-5-(1,2,4-triazin-6-yl)-N-(4-(chlorodifluoromethoxy)phenyl)nicotinamide] | – | – | – | – | – | – | > 1000 | 100 to 500 | –
7 | O=C(Nc1ccc(OC(F)(F)Cl)cc1)c1cnc(N2CC[C@@H](O)C2)c(-c2nccnn2)c1 [Example 6, (R)-6-(3-hydroxypyrrolidin-1-yl)-5-(1,2,4-triazin-3-yl)-N-(4-(chlorodifluoromethoxy)phenyl)nicotinamide] | – | – | – | – | – | – | > 1000 | > 1000 | –
8 | O=C(Nc1ccc(OC(F)(F)Cl)cc1)c1cnc(N2CC[C@@H](F)C2)c(-c2cnccn2)c1 [Example 7, (R)-6-(3-fluoropyrrolidin-1-yl)-5-(pyrazin-2-yl)-N-(4-(chlorodifluoromethoxy)phenyl)nicotinamide] | 2.52 | 3740 | 0.79 | 23100 | 2370 | 61.95 | > 1000 | ≤ 100 | Cl—pred ([1]; IV 2 mg/kg single dose): 0.54; Cl—pred ([1]; PO 20 mg/kg single dose): 0.90; Cmax ([1]; IV 2 mg/kg single dose): 4510 ng/mL; MRT inf ([1]; IV 2 mg/kg single dose): 1.14 h; MRT inf ([1]; PO 20 mg/kg single dose): 5.43 h; Tumor volume (x ± S) ([3]; at day 2 after grouping): 175 ± 17 mm^3; Tumor volume (x ± S) ([3]; at day 5 after grouping): 237 ± 27 mm^3; Tumor volume (x ± S) ([3]; at day 8 after grouping): 432 ± 24 mm^3; Tumor volume (x ± S) ([3]; at day 10 after grouping): 590 ± 51 mm^3; Tumor volume (x ± S) ([3]; at day 12 after grouping): 790 ± 64 mm^3; Tumor volume (x ± S) ([3]; at day 15 after grouping): 1145 mm^3 and 1145 ± 116 mm^3; relative tumor growth inhibition rate TGI ([3]; at day 15 after grouping): 53.1%; Tumor volume (x ± S) ([3]; at day 17 after grouping): 1532 ± 129 mm^3; Tumor volume (x ± S) ([3]; at day 19 after grouping): 1761 ± 212 mm^3; Tumor volume (x ± S) ([3]; at day 22 after grouping): 2216 ± 126 mm^3; Tumor volume (x ± S) ([3]; at the day of grouping): 160 ± 11 mm^3; average body weight of the mice increased by ([4]; at day 22 after grouping): 1.3%; decrease in the body weight of mice during the experiment ([4]; during the experiment): no mouse in the Example 7 15 mg/kg group had a decrease in the body weight
